One assay concerns the target CDK5/p25 (Homo sapiens, UniProt Q00535). Description: CDK5 mobility shift assay (enzymatic activity of CDK5/p25). It is filed as biochemical. Particulars: for IC50: 0.154 nM CDK5/p25, FL peptide 29, 60 min at room temperature, read-out: CDK5 IC50. The procedure: (§1) Compound potency was measured via a change in the enzymatic activity of CDK5/p25, and optionally of CDK2/CycA2. Enzymes, CDK5/p25 and CDK2/CycA2, were sourced from Carna Biosciences (Cat #04-106 and 04-103, respectively). Test compound stocks were diluted in 100% DMSO and serially diluted 3-fold in a 384-well plate using a TECAN EVO200 (TECAN). Staurosporine was used as a reference control compound in all assays.
(§2) Twenty nL of compound were transferred into a 384-well plate (Greiner 781201) using an Echo550 (Labcyte Inc). Enzyme, ATP, and 10 mM MgCl2 were preincubated at room temperature with the compound in assay buffer (50 mM HEPES pH 7.5, 1 mM EGTA, 0.01% Brij-35, 0.05% BSA, 2 mM DTT) for 30 minutes. Peptide substrate (FL peptide 29 (Perkin Elmer) for CDK5/p25; FL Peptide 18 (Perkin Elmer) for CDK2/CycA2) was added to initiate the reaction. The final assay contained 0.154 nM CDK5/p25 or 1.25 nM CDK2/CycA2, […] (for CDK5/p25) or 37 μM (for CDK2/CycA2) ATP, and 1.5 μM of the appropriate peptide substrate. The final DMSO concentration was <1%.
(§3) The CDK5/p25 reaction was incubated at room temperature for 60 min. The CDK2/CycA2 reaction was incubated at room temperature for 120 min. The reactions were quenched by the addition of 70 μL stopping buffer containing 0.5 M EDTA. Samples were analyzed using the EZ Reader (Perkin Elmer).
(§4) The results were expressed as % vehicle, where % vehicle=100×(U−C2)/(C1−C2), where U is the signal of sample, C1 is the average of the high controls (signal with no compound added), and C2 is the average of low controls (signal with the buffer in place of enzyme). The ICso is determined by fitting the percentage of inhibition as a function of compound concentrations using a 4-parameter fit defined as follows.
(§5) Y=Bottom+(Top−Bottom)/(1+10^((LobIC50-X)*Hill Slope)), where X is the log of the compound concentration, Y is the % vehicle or response at X, Top and Bottom are the plateaus in the same units as Y, and the Hill's Slope is unitless, and the ICso is the half-maximal inhibitory concentration.

Another assay addresses CDK2/CycA2 (Homo sapiens, UniProt P24941). Description: CDK2 mobility shift assay (enzymatic activity of CDK2/CycA2). It is filed as biochemical. The note with it: 1.25 nM CDK2/CycA2, 37 μM ATP, FL Peptide 18, 120 min at room temperature; read-out: CDK2 IC50. Here is the method: as §1, §2, §3, §4, §5
Where [1] appears, read: fold more active against CDK5 than CDK2.

Eleven compounds from patent US20220389009A1, “SUBSTITUTED 1,6-NAPHTHYRIDINE INHIBITORS OF CDK5” (Goldfinch Bio, Inc., priority 2019, published 2022) can be followed below.

Read-outs that look alike come from different tables or passages of the source. Where only a bound is given, the exact number is not on record here.

Sequence of CDK5/p25 (Q00535 whole entry): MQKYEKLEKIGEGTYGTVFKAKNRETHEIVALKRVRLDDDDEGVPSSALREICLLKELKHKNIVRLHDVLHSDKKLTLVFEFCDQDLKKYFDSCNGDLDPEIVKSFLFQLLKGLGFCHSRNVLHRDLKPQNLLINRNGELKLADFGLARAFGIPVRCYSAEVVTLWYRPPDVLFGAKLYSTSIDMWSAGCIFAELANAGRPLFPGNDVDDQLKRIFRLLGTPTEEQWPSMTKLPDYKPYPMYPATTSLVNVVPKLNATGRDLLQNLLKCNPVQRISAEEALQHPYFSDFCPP
Sequence of CDK5/p25 (Q15078 99-307 partner limits assumed): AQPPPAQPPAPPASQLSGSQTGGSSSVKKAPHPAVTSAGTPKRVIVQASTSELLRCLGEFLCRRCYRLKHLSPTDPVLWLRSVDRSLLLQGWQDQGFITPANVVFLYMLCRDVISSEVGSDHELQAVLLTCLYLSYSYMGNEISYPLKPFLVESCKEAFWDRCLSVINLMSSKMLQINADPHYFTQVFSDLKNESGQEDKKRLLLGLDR

Turning to `CN1CCC(C(C)(O)c2ccc3cnc(Nc4ccc(-n5ccc(C#N)n5)cc4F)cc3n2)CC1` (stereo not drawn) [Compound 371], the IC50 at CDK5/p25 was less than 10 nM; at CDK2/CycA2, 100 to 1000 nM. The CDK5/CDK2 specificity result at CDK5/p25 (setting [1]) is “++ (greater than 10-fold and less than or equal to 100-fold more active against CDK5 than CDK2)”.
On to `CN1CCC(C(C)(O)c2ccc3cnc(Nc4ccc(-c5ccc(=O)n(C)c5)cc4F)cc3n2)CC1` (stereo not drawn) [Compound 351], for which the IC50 on CDK5/p25 is less than 10 nM; on CDK2/CycA2, 10 to 100 nM. In addition, at CDK5/p25 (setting [1]), the CDK5/CDK2 specificity result is “++ (greater than 10-fold and less than or equal to 100-fold more active against CDK5 than CDK2)”.
For the compound `CCC(O)(c1ccc2cnc(Nc3ccc(-n4cccn4)cc3F)cc2n1)C1CCN(C)CC1` (stereo not drawn) [Compound 389], the 50% inhibitory concentration (IC50) at CDK5/p25 and on CDK2/CycA2 was greater than 1000 nM each time. The CDK5/CDK2 specificity entry at CDK5/p25 (setting [1]) was “++ (greater than 10-fold and less than or equal to 100-fold more active against CDK5 than CDK2)”.
For `CN1CCC(C(C)(O)c2ccc3cnc(Nc4ccc(-c5cccc(C#N)c5)cc4F)cc3n2)CC1` (stereo not drawn) [Compound 335], the 50% inhibitory concentration (IC50) was less than 10 nM on CDK5/p25 and 10 to 100 nM on CDK2/CycA2. Also, at CDK5/p25 (setting [1]), the CDK5/CDK2 specificity result was “++ (greater than 10-fold and less than or equal to 100-fold more active against CDK5 than CDK2)”.
Regarding `NC1CCCN(C(=O)c2ccc3cnc(Nc4ccc(-n5cccn5)cc4F)cc3n2)C1` (stereo not drawn) [Compound 242, 2-(3-aminopiperidine-1-carbonyl)-N-[2-fluoro-4-(pyrazol-1-yl)phenyl]-1,6-naphthyridin-7-amine], the IC50 was 100 to 1000 nM at CDK5/p25 and greater than 1000 nM at CDK2/CycA2. Moreover, the CDK5/CDK2 specificity entry on CDK5/p25 (setting [1]) is “++ (greater than 10-fold and less than or equal to 100-fold more active against CDK5 than CDK2)”.
Regarding `COC(=O)c1ccn(-c2ccc(Nc3cc4nc(C(O)C5CCN(C)CC5)ccc4cn3)c(F)c2)n1` (stereo not drawn) [Compound 347], the IC50 was less than 10 nM at CDK5/p25 and 100 to 1000 nM on CDK2/CycA2. The CDK5/CDK2 specificity result at CDK5/p25 (setting [1]) was “+++ (greater than 100-fold more active against CDK5 than CDK2)”.
On to `COC(=O)c1cnn(-c2ccc(Nc3cc4nc([C@](C)(O)C5CCN(C)CC5)ccc4cn3)c(F)c2)c1` [Compound 367, methyl 1-[3-fluoro-4-([2-[(1R)-1-hydroxy-1-(1-methylpiperidin-4-yl)ethyl]-1,6-naphthyridin-7-yl]amino)phenyl]pyrazole-4-carboxylate], for which the figures for the IC50 at CDK5/p25 and on CDK2/CycA2 were less than 10 nM and 10 to 100 nM, respectively. In addition, on CDK5/p25 (setting [1]), the CDK5/CDK2 specificity result is “++ (greater than 10-fold and less than or equal to 100-fold more active against CDK5 than CDK2)”.
As for `CN1CCC([C@@](C)(O)c2ccc3cnc(Nc4ccccc4)cc3n2)CC1` [Compound 345, (1R)-1-(1-methylpiperidin-4-yl)-1-[7-(phenylamino)-1,6-naphthyridin-2-yl]ethanol], the IC50 at CDK5/p25 was less than 10 nM; on CDK2/CycA2 it was 10 to 100 nM. On CDK5/p25 (setting [1]), the CDK5/CDK2 specificity result was “++ (greater than 10-fold and less than or equal to 100-fold more active against CDK5 than CDK2)”.
On to “3-fluoro-4-([2-[(1R)-1-hydroxy-1-(1-methylpiperidin-4-yl)ethyl]-1,6-naphthyridin-7-yl]amino)-[1,1-biphenyl]-3-carboxylic acid [Compound 360]”, for which the CDK5/CDK2 specificity entry at CDK5/p25 was “++ (greater than 10-fold and less than or equal to 100-fold more active against CDK5 than CDK2)”. Moreover, the IC50 at CDK5/p25 is less than 10 nM; on CDK2/CycA2, 10 to 100 nM.
Take `CN1CCC(S(=O)(=O)c2ccc3cnc(Nc4cccc(N5CCNC5=O)c4)cc3n2)CC1` [Compound 285]: the half-inhibitory concentration (IC50) is less than 10 nM on CDK5/p25 and 10 to 100 nM on CDK2/CycA2. For the same compound, the CDK5/CDK2 specificity entry at CDK5/p25 (setting [1]) was “++ (greater than 10-fold and less than or equal to 100-fold more active against CDK5 than CDK2)”.
On to `CN1CCC(S(=O)(=O)c2ccc3cnc(Nc4cccc(CN5CCOCC5)c4)cc3n2)CC1` [Compound 276], for which the results for the IC50 at CDK5/p25 and on CDK2/CycA2 were less than 10 nM and 100 to 1000 nM, respectively. Also, the CDK5/CDK2 specificity result on CDK5/p25 (setting [1]) was “++ (greater than 10-fold and less than or equal to 100-fold more active against CDK5 than CDK2)”.
